Data published in the supplement of paper PMC10307832.

Key:
Experiment in all cases: relative viability (nuclei count vs DMSO), 5 days (fraction); higher = more cells survive
Serdemetan + AZD7762 = compound: c1ccc2c(CCNc3ccc(Nc4ccncc4)cc3)c[nH]c2c1 [Serdemetan] + NC(=O)Nc1cc(-c2cccc(F)c2)sc1C(=O)N[C@H]1CCCNC1 [AZD7762] (partner 0.2 µM)
Method in brief: (§1)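 Dosing by pin tool came one day after lung cancer cell lines were seeded in 1536-well plates, using either one drug or a fixed anchor-drug dose plus five library-drug doses (not always all listed) in √10 steps. After 5 days, nuclei were counted on 4× images. Relative viability is treated-well nuclei count divided by vehicle-well nuclei count, and values are medians of duplicate plates.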

Serdemetan + Bortezomib = compound: c1ccc2c(CCNc3ccc(Nc4ccncc4)cc3)c[nH]c2c1 [Serdemetan] + CC(C)C[C@H](NC(=O)[C@H](Cc1ccccc1)NC(=O)c1cnccn1)B(O)O [Bortezomib] (partner 0.002 µM)
Method in brief: as §1

Selisistat + Alpelisib = compound: C1CC(C2=C(C1)C3=C(N2)C=CC(=C3)Cl)C(=O)N [Selisistat] + Cc1nc(NC(=O)N2CCC[C@H]2C(N)=O)sc1-c1ccnc(C(C)(C)C(F)(F)F)c1 [Alpelisib] (partner 2 µM)
Method in brief: as §1

Serdemetan + Palbociclib = compound: c1ccc2c(CCNc3ccc(Nc4ccncc4)cc3)c[nH]c2c1 [Serdemetan] + CC(=O)c1c(C)c2cnc(Nc3ccc(N4CCNCC4)cn3)nc2n(C2CCCC2)c1=O [Palbociclib] (partner 0.5 µM)
Method in brief: as §1

Cell Line	relative viability (Serdemetan + AZD7762; first compound 0.04 µM)	relative viability (Serdemetan + AZD7762; first compound 0.1265 µM)	relative viability (Serdemetan + AZD7762; first compound 4 µM)	relative viability (Serdemetan + Bortezomib; first compound 0.04 µM)	relative viability (Serdemetan + Bortezomib; first compound 0.1265 µM)	relative viability (Serdemetan + Bortezomib; first compound 0.4 µM)	relative viability (Serdemetan + Bortezomib; first compound 1.265 µM)	relative viability (Serdemetan + Bortezomib; first compound 4 µM)	relative viability (Selisistat + Alpelisib; first compound 0.4 µM)	relative viability (Selisistat + Alpelisib; first compound 1.265 µM)	relative viability (Selisistat + Alpelisib; first compound 4 µM)	relative viability (Selisistat + Alpelisib; first compound 12.65 µM)	relative viability (Selisistat + Alpelisib; first compound 40 µM)	relative viability (Serdemetan + Palbociclib; first compound 0.04 µM)	relative viability (Serdemetan + Palbociclib; first compound 0.1265 µM)	relative viability (Serdemetan + Palbociclib; first compound 4 µM)	relative viability (Serdemetan + AZD7762; first compound 0.4 µM)	relative viability (Serdemetan + AZD7762; first compound 1.265 µM)	relative viability (Serdemetan + Palbociclib; first compound 0.4 µM)	relative viability (Serdemetan + Palbociclib; first compound 1.265 µM)
EKVX	0.808	0.746	0.649	1.09	1	0.857	0.911	1.25	0.949	0.855	0.723	0.853	0.878	0.456	0.374	0.282	–	–	–	–
EPLC-272H	0.245	0.217	0.215	0.967	0.931	0.899	0.723	0.634	1.02	0.853	–	0.977	0.885	0.337	0.329	0.3	0.221	0.221	0.33	0.256
NCI-H2126	0.924	1.04	1.04	1.12	1.12	1.11	0.934	1.12	0.812	0.77	0.758	0.863	0.81	0.356	0.379	0.354	0.923	0.932	0.349	0.329
LXF-289	1.07	1.11	0.846	0.954	1.01	0.944	0.951	0.894	1.13	1.04	0.989	1	0.984	0.544	0.542	0.381	1.07	0.982	0.527	0.524
NCI-H2405	0.747	0.721	0.625	0.976	0.915	0.905	0.738	0.949	0.769	–	–	0.834	0.845	0.479	0.515	0.52	0.721	0.683	0.549	0.466
NCI-H1755	0.461	0.45	0.389	0.877	0.949	0.896	0.58	0.563	1.03	0.958	0.94	0.956	0.935	0.45	0.42	0.39	0.492	0.288	0.445	0.344
HCC-78	0.578	0.571	0.503	0.471	0.524	0.476	0.52	0.372	0.439	0.367	0.349	0.34	0.278	0.449	0.391	0.47	0.514	0.589	0.494	0.437
LOU-NH91	0.768	0.746	0.79	0.536	0.485	0.412	0.409	0.433	0.71	0.681	0.619	0.71	0.723	0.518	0.515	0.563	–	–	–	–
NCI-H3122	1	0.975	0.71	1.03	0.955	1.06	–	1.08	0.743	0.694	0.407	0.873	0.748	0.192	0.227	0.214	1.03	0.929	0.224	0.205
HCC-827	0.218	0.157	0.17	1.05	0.959	–	0.954	1.01	0.98	0.976	0.919	0.999	0.978	0.454	0.448	0.303	–	0.18	–	0.412
NCI-H1975	0.635	0.769	0.72	0.346	0.378	0.377	0.313	0.314	0.656	0.553	0.588	0.604	0.579	0.691	0.662	0.783	0.717	0.769	0.434	0.331
NCI-H1651	0.375	0.286	0.213	0.805	0.938	0.904	0.501	0.356	0.945	0.905	0.944	0.894	1.01	0.51	0.499	0.29	0.363	0.248	0.523	0.358
NCI-H441	1.28	1.19	0.548	0.459	0.784	0.906	0.569	0.643	0.804	0.64	–	0.691	0.707	0.206	0.212	0.225	1.05	0.858	0.18	0.147
LCLC-103H	0.788	0.79	0.812	1.12	1.05	0.96	0.736	1.2	1.03	0.963	0.99	0.92	0.94	0.479	0.474	0.419	0.763	0.759	0.453	0.389
LCLC-97TM1	0.304	0.232	0.211	0.546	0.517	0.809	–	0.307	0.233	0.229	0.278	0.275	0.219	0.228	0.224	0.16	0.255	0.184	0.22	0.134
NCI-H727	0.562	0.437	0.481	0.923	1.01	1.03	0.557	0.431	0.553	0.714	–	–	0.458	0.351	0.638	0.644	0.526	0.443	0.604	0.722
NCI-H1355	0.631	0.512	0.484	1.23	1.19	1.12	1.17	1.1	0.936	0.874	–	0.862	1.05	0.381	0.381	0.366	0.623	0.469	0.366	0.371
